# Target: T1, MMP-13 (Homo sapiens, UniProt P45452)
# T1 construct: purchased GenzymeTechne
# Experiment: MMP-13 inhibitory activity (fluorogenic substrate Cy3-PLGLK(Cy5Q)AR-NH2 enzyme assay)
# Assay type: biochemical
# Settings: compound 1 μM; 37° C., 40 min; APMA-activated MMP-13 precursor; read-out: MMP-13 inhibitory rate (%) at 1 μM
# Description: To 10 μg of MMP-13 precursor (GenzymeTechne) was added 1 ml of assay buffer (50 mM Tris-HCl (pH 7.5), 10 mM CaCl2, 150 mM NaCl, 0.05% Brij-35), and 4-aminophenylmercuric acid (Sigma) was added to the final concentration of 1 mM. The MMP-13 precursor was activated by incubating at 37° C. for 2 hr.
# In a 96 well black plate (Corning), to 6.3 ng/ml of MMP-13 solution (49 μl) diluted with assay buffer was added the test compound (1 μl) diluted with dimethyl sulfoxide (DMSO) and 620 nM Cy3-PLGLK(Cy5Q)AR-NH2 (50 μl, synthesized by Amersham Biosciences) in assay buffer was added to start the enzyme reaction. After incubation at 37° C. for 40 min, 500 mM EDTA solution (6 μl) was added to stop the reaction. For measurement, Farcyte (Amersham Biosciences) was used to measure at excitation wavelength 535 nm and measurement wavelength 595 nm.
# T: value of well with addition of DMSO instead of test compound
# C: value of well with addition of DMSO instead of test compound and addition of EDTA solution before addition of substrate solution
# X: value of well with addition of test compound
row,Structure (SMILES),inhibition at 1 µM [%]
1,"Cc1csc2nc(C(=O)NCc3ccnc(OCCSc4nc[nH]n4)c3)[nH]c(=O)c12 [Example 21, 5-methyl-4-oxo-N-[(2-{[2-(1H-1,2,4-triazol-3-ylthio)ethyl]oxy}pyridin-4-yl)methyl]-3,4-dihydrothieno[2,3-d]pyrimidine-2-carboxamide]",100
2,"Nc1ccc2nc(C(=O)NCc3cccc(OCCSc4nc[nH]n4)c3)[nH]c(=O)c2c1 [Example 7, 6-amino-4-oxo-N-[(3-{[2-(1H-1,2,4-triazol-3-ylthio)ethyl]oxy}phenyl)methyl]-3,4-dihydroquinazoline-2-carboxamide]",97
3,"O=C(NCc1cccc(OCCSc2nc[nH]n2)c1)c1nc2ccc(Cl)cc2c(=O)[nH]1 [Example 5, 6-chloro-4-oxo-N-[(3-{[2-(1H-1,2,4-triazol-3-ylthio)ethyl]oxy}phenyl)methyl]-3,4-dihydroquinazoline-2-carboxamide]",97
4,"N#Cc1ccc2nc(C(=O)NCc3cccc(COCc4nc[nH]n4)c3)[nH]c(=O)c2c1 [Example 31, 6-cyano-4-oxo-N-[(3-{[(1H-1,2,4-triazol-3-ylmethyl)oxy]methyl}phenyl)methyl]-3,4-dihydroquinazoline-2-carboxamide]",97
5,"Cc1csc2nc(C(=O)NCc3cccc(NC(=O)c4nc[nH]n4)c3)[nH]c(=O)c12 [Example 39, 5-methyl-4-oxo-N-({3-[(1H-1,2,4-triazol-3-ylcarbonyl)amino]phenyl}methyl)-3,4-dihydrothieno[2,3-d]pyrimidine-2-carboxamide]",81
6,"Cc1csc2nc(C(=O)NCc3ccnc(OCCCc4nc[nH]n4)c3)[nH]c(=O)c12 [Example 24, 5-methyl-4-oxo-N-[(2-{[3-(1H-1,2,4-triazol-3-yl)propyl]oxy}pyridin-4-yl)methyl]-3,4-dihydrothieno[2,3-d]pyrimidine-2-carboxamide]",93
7,"N#Cc1ccc2nc(C(=O)NCc3cccc(NC(=O)CCc4nc[nH]n4)c3)[nH]c(=O)c2c1 [Example 32, 6-cyano-4-oxo-N-[(3-{[3-(1H-1,2,4-triazol-3-yl)propanoyl]amino}phenyl)methyl]-3,4-dihydroquinazoline-2-carboxamide]",98
8,"N#Cc1ccc2nc(C(=O)NCc3cccc(NC(=O)c4nc[nH]n4)c3)[nH]c(=O)c2c1 [Example 38, 6-cyano-4-oxo-N-({3-[(1H-1,2,4-triazol-3-ylcarbonyl)amino]phenyl}methyl)-3,4-dihydroquinazoline-2-carboxamide]",85
9,"O=C(NCc1cccc(OCCSc2nc[nH]n2)c1)c1nc2ccc(F)cc2c(=O)[nH]1 [Example 3, 6-fluoro-4-oxo-N-[(3-{[2-(1H-1,2,4-triazol-3-ylthio)ethyl]oxy}phenyl)methyl]-3,4-dihydroquinazoline-2-carboxamide]",98
10,"Cc1sc2nc(C(=O)NCc3cccc(OCCSc4nc[nH]n4)c3)[nH]c(=O)c2c1C [Example 14, 5,6-dimethyl-4-oxo-N-[(3-{[2-(1H-1,2,4-triazol-3-ylthio)ethyl]oxy}phenyl)methyl]-3,4-dihydrothieno[2,3-d]pyrimidine-2-carboxamide]",98
11,"O=C(NCc1cccc(OCCSc2nc[nH]n2)c1)c1nc2cccc(F)c2c(=O)[nH]1 [Example 10, 5-fluoro-4-oxo-N-[(3-{[2-(1H-1,2,4-triazol-3-ylthio)ethyl]oxy}phenyl)methyl]-3,4-dihydroquinazoline-2-carboxamide]",98
12,"O=C(NCc1ccnc(OCCSc2nc[nH]n2)c1)c1nc2ccccc2c(=O)[nH]1 [Example 19, 4-oxo-N-[(2-{[2-(1H-1,2,4-triazol-3-ylthio)ethyl]oxy}pyridin-4-yl)methyl]-3,4-dihydroquinazoline-2-carboxamide]",93
13,"N#Cc1ccc2nc(C(=O)NCc3cccc(CNC(=O)c4nc[nH]n4)c3)[nH]c(=O)c2c1 [Example 36, 6-cyano-4-oxo-N-[(3-{[(1H-1,2,4-triazol-3-ylcarbonyl)amino]methyl}phenyl)methyl]-3,4-dihydroquinazoline-2-carboxamide]",97
14,"O=C(O)c1ccc(COCc2csc3nc(C(=O)NCc4ccnc(OCCCc5nc[nH]n5)c4)[nH]c(=O)c23)cc1 [Example 42, 4-[({[4-oxo-2-({[(2-{[3-(1H-1,2,4-triazol-3-yl)propyl]oxy}pyridin-4-yl)methyl]amino}carbonyl)-3,4-dihydrothieno[2,3-d]pyrimidin-5-yl]-methyl}oxy)methyl]benzoic acid]",98
15,"O=C(NCc1ccnc(OCCCc2nc[nH]n2)c1)c1nc2ccccc2c(=O)[nH]1 [Example 22, 4-oxo-N-[(2-{[3-(1H-1,2,4-triazol-3-yl)propyl]oxy}pyridin-4-yl)methyl]-3,4-dihydroquinazoline-2-carboxamide]",95

# Second part, the molecule after the results:
row,inhibition at 1 µM [%],Structure (SMILES)
1,99,"O=C(O)c1ccc(OCCn2ncc3nc(C(=O)NCc4cccc(OCCOc5nc[nH]n5)c4)[nH]c(=O)c32)cc1 [Example 48, 4-({2-[7-oxo-5-({[(3-{[2-(1H-1,2,4-triazol-3-yloxy)ethyl]oxy}phenyl)methyl]amino}carbonyl)-6,7-dihydro-1H-pyrazolo[4,3-d]pyrimidin-1-yl]ethyl}oxy)benzoic acid]"
2,97,"N#Cc1ccc2nc(C(=O)NCc3cccc(OCCOc4nc[nH]n4)c3)[nH]c(=O)c2c1 [Example 25, 6-cyano-4-oxo-N-[(3-{[2-(1H-1,2,4-triazol-3-yloxy)ethyl]oxy}phenyl)methyl]-3,4-dihydroquinazoline-2-carboxamide]"
3,98,"N#CCc1csc2nc(C(=O)NCc3cccc(OCCOc4nc[nH]n4)c3)[nH]c(=O)c12 [Example 29, 5-(cyanomethyl)-4-oxo-N-[(3-{[2-(1H-1,2,4-triazol-3-yloxy)ethyl]oxy}phenyl)methyl]-3,4-dihydrothieno[2,3-d]pyrimidine-2-carboxamide]"
4,97,"O=C(NCc1cccc(OCCOc2nc[nH]n2)c1)c1nc2ccc(F)c(NCc3cccc(OCCOc4nc[nH]n4)c3)c2c(=O)[nH]1 [Example 45, 6-fluoro-4-oxo-N-[(3-{[2-(1H-1,2,4-triazol-3-yloxy)ethyl]oxy}phenyl)methyl]-5-{[(3-{[2-(1H-1,2,4-triazol-3-yloxy)ethyl]oxy}phenyl)methyl]amino}-3,4-dihydroquinazoline-2-carboxamide]"
5,98,"COC(=O)c1ccc(OCCn2ncc3nc(C(=O)NCc4cccc(OCCOc5nc[nH]n5)c4)[nH]c(=O)c32)cc1 [Example 47, methyl 4-({2-[7-oxo-5-({[(3-{[2-(1H-1,2,4-triazol-3-yloxy)ethyl]oxy}phenyl)methyl]amino)carbonyl}-6,7-dihydro-1H-pyrazolo[4,3-d]pyrimidin-1-yl]ethyl}oxy)benzoate]"
6,99,"COc1ccc2nc(C(=O)NCc3cccc(OCCSc4nc[nH]n4)c3)[nH]c(=O)c2c1 [Example 4, 6-(methyloxy)-4-oxo-N-[(3-{[2-(1H-1,2,4-triazol-3-ylthio)ethyl]oxy}phenyl)methyl]-3,4-dihydroquinazoline-2-carboxamide]"
7,98,"N#Cc1ccc2nc(C(=O)NCc3cccc(OCCCSc4nc[nH]n4)c3)[nH]c(=O)c2c1 [Example 15, 6-cyano-4-oxo-N-[(3-{[3-(1H-1,2,4-triazol-3-ylthio)propyl]oxy}phenyl)methyl]-3,4-dihydroquinazoline-2-carboxamide]"
